Assay results reported in patent US20190111016A1, “METHODS OF TREATING MUSCLE AND LIVER DISORDERS” (The Regents of the University of California, priority 2016, published 2019).
Counter-ions that a name gives are not always drawn.

Assays:
[1] = test system: healthy human fibroblast cell line AG09429; assay: mtDNA copy number (mtDNA/nDNA, MT-TL1/B2M) by qPCR in DMF-treated human fibroblasts; assay type: cell-based; conditions: 48 hours
Experimental: (§1) The healthy human fibroblast cell line AG09429 (Coriell Institute, Camden, N.J., USA) was maintained at 37° C. in a humidified atmosphere with 5% CO2. DMEM (Corning, Inc., Corning, N.Y., USA) supplemented with 10% fetal bovine serum (JR-Scientific, Woodland, Calif., USA), 1× Penicillin-Streptomycin Solution (Corning, Inc., Corning, N.Y., USA) was used as growth media. Media was changed every two days.
(§2) The human fibroblasts were plated in a 12-well format at 0.1×10^6 cells per well. The cells were incubated with 0.1% DMSO as vehicle control or 3-30 μM of dimethyl fumarate (Sigma-Aldrich, St. Louis, Mo., USA) dissolved in DMSO. Total RNA and DNA were extracted following a 48-hour incubation period.
(§3) Total DNA was extracted from human fibroblast and mouse tissues using DNeasy plus mini kit and DNeasy blood & tissue kit (Qiagen, Valencia, Calif., USA), respectively, following manufacturer's instruction. DNA was quantified by a NanoDrop 2000c Spectrophotometer (Thermo Scientific, Waltham, Mass., USA).
(§4) cDNA was synthesized from mRNA with iScript cDNA Synthesis Kit (Bio-Rad Laboratories, Hercules, Calif., USA) per manufacturer's instruction in a C1000 Touch Thermal Cycler (Bio-Rad Laboratories, Hercules, Calif., USA). A SensiFAST SYBR No-ROX Kit (Bioline, Taunton, Mass., USA) was used to perform qPCR on the synthesized cDNA in a Roche Lightcycler 480 (Roche Diagnostics, Indianapolis, Ind., USA). The second derivative of the amplification curve was used to determine the cycle threshold, and the data were analyzed by a delta delta CT calculation.
Healthy human fibroblast cells were treated with 0.1% DMSO (vehicle), 3 μM, 10 μM or 30 μM DMF for 48 hours. Mitochondrial DNA (mtDNA) copy number was analyzed from total DNA isolates by measuring the ratio of mitochondrial to nuclear DNA (mtDNA/nDNA). Primers used to amplify mitochondrial DNA and nuclear DNA by qPCR were mitochondrially-encoded tRNA leucine 1 (MT-TL1) and Beta 2 microglobulin (B2M) respectively. […]

[2] = test system: healthy human fibroblast cell line AG09429; assay: qPCR of TFAM and mitochondrial complex subunit mRNA in DMF-treated human fibroblasts; assay type: cell-based; conditions: for average induction of all the mitochondrial complexes (subunit mRNA) compared to vehicle / expression of mitochondrial biogenesis marker TFAM compared to vehicle control: 48 hours
Experimental: as §1, §2
(§5) Total RNA was extracted from human fibroblast cells and PBMCs from whole blood using RNeasy plus mini kit (Qiagen, Valencia, Calif.) and RIboPure RNA Purification Kit (ThermoFisher Scientific, Waltham, Mass., USA), respectively following manufacturers instruction. RNA quantity and quality was measured by a NanoDrop 2000c Spectrophotometer (Thermo Scientific, Waltham, Mass., USA).
as §4
To elucidate whether increased mitochondrial proliferation affects the abundance of the ETC mitochondrial complexes, qPCR analysis was performed to quantify the mRNA expression of numerous complex subunits: complex 1 subunits MT-ND2 and MT-ND6, complex 2 subunits SDHA and SDHB, […], and complex 5 subunits ATP5B and MT-ATP6 [Table 1]. […] Taken together, human fibroblast cells increased mitochondrial biogenesis measured by mtDNA copy number, mitochondrial proliferator marker TFAM expression and mitochondrial complex expression.

[3] = test system: human fibroblasts; assay: Oxygen consumption rate in DMF-treated fibroblasts by Seahorse XF Analyzer; assay type: cell-based; conditions: 48 hours
Experimental: Fibroblast cell lines were seeded at a density of 60,000 cells/well in 200 μL of culture medium in a 24-well seahorse tissue culture plate (Seahorse Biosciences, Billerica, Mass., USA). Following a 24-hour incubation, the media was replaced and incubated with 200 μL of 0.1% DMSO or 3 μM, 10 μM and 30 μM dimethyl fumarate in 0.1% DMSO. Prior to reading the oxygen consumption, the medium was changed to unbuffered DMEM without phenol red (Corning, Inc., Corning, N.Y., USA), 10% fetal bovine serum (JR-Scientific, Woodland, Calif., USA), […] glutamax, […] sodium pyruvate, 25 mM glucose (Invitrogen, Waltham, Mass., USA) and was adjusted to pH 7.4. Cells were pre-equilibrated for 20 min; oxygen consumption rate (OCR) and proton production rate (PPR) were recorded with the Seahorse XF-24 after sequential addition of oligomycin (1 ug/ml), FCCP (10 μM) and a combination of antimycin A (1 μM) and rotenone (1 μM) (Sigma-Aldrich, St. Louis, Mo., USA). Total protein in each well was measured and protein concentration was used to normalize the readings.
To elucidate the bioenergetic effects of DMF-dependent increases in mitochondrial copy number and mitochondrial complex expression in human fibroblasts, oxygen consumption rate (OCR) was measured. Human fibroblasts were treated with 0.1% DMSO, 3 μM, 10 μM or 30 μM DMF for 48 hours, and oxygen consumption rate (OCR) was sequentially measured in the presence of oligomycin (complex 5 inhibitor), FCCP (mitochondrial uncoupler), and rotenone/antimycin A (Complex 1/3 inhibitor) [FIG. 2A]. […] Consistent with the idea that DMF increases mitochondrial copy number and mitochondrial complex expression; the effects of DMF are nullified in the presence of oligomycin and rotenone/antimycin A, which inhibits the mitochondrial electron transport chain that is responsible for mitochondrial oxygen consumption.

[4] = test system: C57BL/6 wild-type mice; assay: mtDNA copy number (mt-Nd1/Cftr) by qPCR in tissues of DMF-dosed mice; assay type: in vivo, mouse; conditions: 10 mg/kg DMF i.p. daily, two weeks
Experimental: (§6) C57BL/6 wild-type mice were housed in a vivarium maintained at 22° C.-24° C. and 40%-60% relative humidity with a 12-hour light/12-hour dark cycle. All experimental procedures were approved by the University of California Institutional Animal Care and Use Committee.
(§7) The stock dimethyl fumarate solution was made by dissolving 50 mg/ml of DMF into DMSO. Prior to injection, 0.5 mg/ml of working DMF solution (1:100 dilution) was made by diluting the stock solution into phosphate-buffered saline with 5% Tween-20 and 5% Polyethylene glycol (Sigma-Aldrich, St. Louis, Mo., USA). The mice were injected intraperitoneally every day for 14 days with 10 mg/kg of DMF.
(§8) The mice were euthanized with CO2 followed by cervical dislocation and tissues were immediately removed then flash frozen with liquid nitrogen. Samples were stored in −80° C. until utilized for experiments.
as §3, §4
(§9) To understand whether the DMF-dependent mitochondrial biogenesis is only applicable to the human fibroblast cells, we examined the effects of DMF on wild type C57BL/6 mice. The mice were dosed with 10 mg/kg DMF daily, and skeletal muscle, cerebellum, liver, and heart tissues were collected after two weeks of treatment We utilized qPCR to analyze, mtDNA copy number as ratio of mt-Nd1 to Cftr and mitochondrial complex expression, in these tissues.

[5] = test system: C57BL/6 wild-type mice; assay: qPCR of mitochondrial complex subunit expression in tissues of DMF-dosed mice; assay type: in vivo, mouse; conditions: 10 mg/kg DMF i.p. daily, two weeks
Experimental: as §6, §7, §8, §4, §9

[6] = test system: MS patients; assay: mtDNA copy number (MT-TL1/B2M) by qPCR in PBMCs of MS patients before and after DMF treatment; assay type: in vivo, human; conditions: 3 months DMF treatment
Excerpt: (§10) The local Ethics Committee of the University Federico II of Naples, approved the study. Patients were recruited from the Multiple Sclerosis Center of the Federico II University of Naples. All patients gave written informed consent before any activity linked to the study was started. Healthy controls were recruited at the clinic through students and site personnel. The study included 12 MS patients and 11 healthy individuals. Samples were obtained on the day before and after 3 months of continuous DMF treatment. Whole blood was collected in EDTA containing Leucosep® tubes (Greiner bio-one, Frickenhausen, Germany) and frozen at −80° C. until analysis. PBMCs were isolated from 30 mL of EDTA anticoagulated whole blood for RNA extraction.
as §4
DMF is a FDA approved drug, currently being used to treat adult patients with relapsing form of MS. […]

[7] = test system: MS patients; assay: qPCR of mitochondrial complex subunit expression in PBMCs of MS patients before and after DMF treatment; assay type: in vivo, human
Excerpt: as §10, §5, §4
DMF is a FDA approved drug, currently being used to treat adult patients with relapsing form of MS. To confirm whether DMF is contributing to mitochondrial biogenesis when given to human patients, we used qPCR to study mitochondrial DNA copy number and mitochondrial complex subunit expression in peripheral blood lymphocytes isolated from 11 MS patients at baseline and those same patients 3 months after DMF treatment, and 10 controls. We see significant increase in mitochondrial DNA copy number by 71% (p<0.0075, n=11) in MS patients' treated with DMF for 3 months compared to its own baseline [FIG. 4A].

[8] = test system: Nrf2; assay: DMF treatment of Nrf2 siRNA knockdown human fibroblasts, qPCR; assay type: cell-based; conditions: then DMF 48 hours
Experimental: (§11) Fibroblast cells were seeded in six-well plates at 0.2×10^6 cells per well and transfected with negative control siRNA (cat. 12935300, Thermo-Fisher, Waltham, Mass., USA), pooled Nrf2 siRNA (cat. HSS107130, HSS181505, HSS181506, Thermo-Fisher, Waltham, Mass., USA) or pooled HCAR2 siRNA (cat. L-006688-02-0005, Dharmacon, Lafayette, Colo., USA) using Lipofectamine RNAiMAX following manufacturer's instruction. After a 48-hour incubation, subsequent drug treatment was conducted with the cells.
as §4
(§12) DMF is known to mediate antioxidant cellular defense by Nrf2 activation, and it suppresses inflammatory signaling by binding to and activating HCAR2 (11, 15). To further understand the Nrf2 and HCAR2 dependent effects of DMF on mitochondrial biogenesis, we analyzed changes in mitochondrial proliferation in Nrf2 siRNA knockdown and HCAR2 siRNA knockdown fibroblasts.

[9] = test system: HCAR2; assay: DMF treatment of HCAR2 siRNA knockdown human fibroblasts, qPCR; assay type: cell-based; conditions: HCAR2 siRNA 48 hours, then DMF 48 hours
Experimental: as §11
cDNA was synthesized from mRNA with iScript cDNA Synthesis Kit (Bio-Rad Laboratories, Hercules, Calif., USA) per manufacturer's instruction in a C1000 Touch Thermal Cycler (Bio-Rad Laboratories, Hercules, Calif., USA). […] The second derivative of the amplification curve was used to determine the cycle threshold, and the data were analyzed by a delta delta CT calculation.
as §12

[10] = MS patients, 3 months DMF treatment

With `COC(=O)/C=C/C(=O)OC` [DMF, dimethyl fumarate] the “change in mtDNA copy number compared to vehicle control” value ([1]; 3 μM DMF) was “no changes”, the “increase in mtDNA copy number compared to vehicle control” value ([1]; 10 μM DMF) was 1.51 fold and the “increase in mtDNA copy number compared to vehicle control” value ([1]; 30 μM DMF) was 1.75 fold. The “average induction of all the mitochondrial complexes (subunit mRNA) compared to vehicle” value ([2]; 10 μM DMF) was 1.42 fold, the “expression of mitochondrial biogenesis marker TFAM compared to vehicle control” value ([2]; 10 μM DMF) was “increased” and the “average induction of all the mitochondrial complexes (subunit mRNA) compared to vehicle” value ([2]; 30 μM DMF) was 2.65 fold. The “expression of mitochondrial biogenesis marker TFAM compared to vehicle control” value ([2]; 30 μM DMF) was “increased”, the “expression of complex 5 subunits in response to DMF compared to other complex subunits” value ([2]; DMF 48 hours) was “less increased” and the “maximal OCR after FCCP injection, relative increase compared to vehicle control” value ([3]; 3 μM DMF) was 1.20 fold. The “basal OCR, relative increase compared to vehicle control” value ([3]; 10 μM DMF) was 1.59 fold, the “maximal OCR after FCCP injection, relative increase compared to vehicle control” value ([3]; 10 μM DMF) was 1.35 fold and the “basal OCR, relative increase compared to vehicle control” value ([3]; 30 μM DMF) was 1.66 fold. For the same compound, the “maximal OCR after FCCP injection, relative increase compared to vehicle control” value ([3]; 30 μM DMF) was 1.47 fold, the “OCR in the presence of oligomycin and rotenone/antimycin A, DMF groups vs vehicle control” value ([3]; 3, 10, 30 μM DMF) was “not significantly different” and the “increase in mtDNA copy number” value ([4]; cerebellum) was 1.29 fold. For the same compound, the “change in mtDNA copy number” value ([4]; heart) was “no significant change”, the “increase in mtDNA copy number” value ([4]; liver) was 1.34 fold and the “increase in mtDNA copy number” value ([4]; skeletal muscle) was 1.45 fold. For the same compound, the “increase in mt-Atp6 (complex 5) expression” value ([5]; cerebellar tissue) was 1.82 fold, the “increase in mt-Co1 (complex 4) expression” value ([5]; cerebellar tissue) was 1.92 fold and the “induction of mitochondrial complexes” value ([5]; liver or heart tissues) was “more minor”. For the same compound, the “increase in mt-Atp6 (complex 5) expression” value ([5]; skeletal muscle) was 1.77 fold, the “increase in mt-Co1 (complex 4) expression” value ([5]; skeletal muscle) was 2.38 fold and the “increase in mt-Nd2 expression” value ([5]; skeletal muscle) was 4.68 fold. The “mitochondrial DNA copy number compared to healthy control group” value [6] was “back to healthy control level”, the “increase in mitochondrial DNA copy number compared to own baseline” value ([6]; peripheral blood lymphocytes) was 71% and the “recovery in average mitochondrial gene expression (mt-ND6, mt-CYB, mt-CO2, mt-ATP6)” value ([7]; MS patients following 3 months DMF treatment, relative to healthy individuals) was 88%. The “increase in mt-ATP6 (complex 5) expression normalized to own baseline” value [7, 10] was 3.74 fold, the “increase in mt-CO2 (complex 4) expression normalized to own baseline” value [7, 10] was 2.34 fold and the “increase in mt-CYB (complex 3) expression normalized to own baseline” value [7, 10] was 2.87 fold. For the same compound, the “increase in mt-ND6 (complex 1) expression normalized to own baseline” value [7, 10] was 3.13 fold, the “expression of Nrf2, NQO1 and mtDNA copy number, siNrf2+DMF compared to siNrf2 cells” value ([8]; Nrf2 siRNA 48 hours) was “significantly increases” and the “induction of TFAM and NRF1 in siNrf2+DMF” value ([8]; Nrf2 siRNA 48 hours) was “no significant induction”. For the same compound, the “mitochondrial complex expression in siNrf2+DMF cells (exception: complex 4)” value ([8]; Nrf2 siRNA 48 hours) was “general reduction”, the “Nrf2, NQO1, TFAM, NRF1 and mtDNA copy number, siCNT+DMF compared to siCNT” value ([8]; control siRNA 48 hours) was “significant induction” and the “inducibility of NRF1, mtDNA copy number and mitochondrial complex 2-5 subunit gene expression, siHCAR2+DMF compared to siCTL+DMF” value [9] was “no significant difference”. The “inducibility of complex 1 subunit MT-ND2 by DMF when HCAR2 is knocked down” value [9] was “uninducible”.
